{"source": "patent US8236346B2", "about": "“Method for reducing amyloid deposition, amyloid neurotoxicity, and microgliosis with (-)-nilvadipine enantiomer” (Alzheimer's Institute of America, Inc, priority 2007, dated 2012)", "key": {"Aβ deposits": {"system": "Aβ deposits", "conditions": "Lim et al., J. Neurosci. 2000; cited from earlier work"}, "[1]": {"system": "human neuronal progenitor cells (HNPC)", "test": "Aβ neurotoxicity, LDH release", "type": "cell-based", "conditions": "100 nM nilvadipine with 30 μM AgAβ, three days", "protocol": "Cyclic AMP (1 mM) (Sigma) was added to the culture medium and the HNPC cells were incubated at 37° C. for 48 hours or more under serum free conditions. This medium allowed differentiation of the progenitors into cells of neuronal lineage, as was confirmed by the staining of most of the cells with antibodies against the microtubule-associated protein, MAP-2. Neurotoxicity was assessed by measuring the amount of lactic dehydrogenase (LDH; an intracellular enzyme found in all cells) released from the cells."}, "[2]": {"system": "Aβ deposition (amyloid burden)", "test": "Chronic administration of nilvadipine on Aβ deposition (amyloid burden), 4G8 immunostaining", "type": "in vivo, TgAPPsw mice", "protocol": "The 4G8 immunostaining technique was chosen for determining the Aβ burden because of its robust signal and optimal results for quantitative analysis of Aβ deposition. Briefly, paraffin sections were subjected to immunohistochemistry as described previously (Nakagawa, Y et al., Exp. Neurol., 163:244-252, 2000). Sections were deparaffinized in xylene, hydrated in a series of ethanol and deionized water, and subjected to an antigen retrieval step by immersing sections in 88% formic acid for 60 min before immunohistochemistry for Aβ. Sections were washed in water, and endogenous peroxidases were quenched using a freshly prepared mixture of methanol (150 ml) plus hydrogen peroxide (33%, 30 ml). The avidin-biotin complex method was used according to the instructions of the vendor (Vector Laboratories, Burlingame, Calif.). Amyloid burden was assessed by determining the percentage of the brain region that stained positive for Aβ. Negative controls included the application of the same immunohistochemistry protocol to sections, except preimmune serum was applied instead of primary antibody."}, "[3]": {"system": "N9 murine microglial cells", "test": "LPS-induced microglial activation, TNF-α production by ELISA", "type": "cell-based", "protocol": "N9 murine microglial cells are well characterized scavenger murine microglial clones derived from embryonic mouse brain. The extent of microglial activation was determined by TNF-α production (pg/ml) measured by ELISA. […] Microglial cells in the presence of 1 μg/ml LPS produced about 820 pg/ml TNF-α, an […] from the control cells and nilvadipine-administered cells."}, "[4]": {"system": "human glioblastoma cells transfected with APPsw", "test": "APP processing, Aβ1-40 production by ELISA", "type": "cell-based"}, "CD45+ microglia": {"system": "CD45+ microglia", "test": "Chronic administration of nilvadipine on microglial activation, CD45 immunostaining", "type": "in vivo, TgAPPsw mice", "protocol": "Briefly, immunohistochemistry for CD45, a specific marker of microglia, was conducted on the cryostat brain sections. CD45-positive microglial cells were immunolocalized by incubation with a mouse monoclonal antibody against CD45 (Chemicon International) overnight at 4° C., followed by application of a biotinylated rabbit anti-mouse secondary antibody for 30 minutes. Detection of CD45 was completed with diaminobenzidine chromogen substrate, which produces a brown cell surface stain on CD45-positive microglial cells."}, "L-type calcium channels": {"target": "L-type calcium channels (Rattus norvegicus, UniProt P22002)", "sequence (P22002 whole entry)": "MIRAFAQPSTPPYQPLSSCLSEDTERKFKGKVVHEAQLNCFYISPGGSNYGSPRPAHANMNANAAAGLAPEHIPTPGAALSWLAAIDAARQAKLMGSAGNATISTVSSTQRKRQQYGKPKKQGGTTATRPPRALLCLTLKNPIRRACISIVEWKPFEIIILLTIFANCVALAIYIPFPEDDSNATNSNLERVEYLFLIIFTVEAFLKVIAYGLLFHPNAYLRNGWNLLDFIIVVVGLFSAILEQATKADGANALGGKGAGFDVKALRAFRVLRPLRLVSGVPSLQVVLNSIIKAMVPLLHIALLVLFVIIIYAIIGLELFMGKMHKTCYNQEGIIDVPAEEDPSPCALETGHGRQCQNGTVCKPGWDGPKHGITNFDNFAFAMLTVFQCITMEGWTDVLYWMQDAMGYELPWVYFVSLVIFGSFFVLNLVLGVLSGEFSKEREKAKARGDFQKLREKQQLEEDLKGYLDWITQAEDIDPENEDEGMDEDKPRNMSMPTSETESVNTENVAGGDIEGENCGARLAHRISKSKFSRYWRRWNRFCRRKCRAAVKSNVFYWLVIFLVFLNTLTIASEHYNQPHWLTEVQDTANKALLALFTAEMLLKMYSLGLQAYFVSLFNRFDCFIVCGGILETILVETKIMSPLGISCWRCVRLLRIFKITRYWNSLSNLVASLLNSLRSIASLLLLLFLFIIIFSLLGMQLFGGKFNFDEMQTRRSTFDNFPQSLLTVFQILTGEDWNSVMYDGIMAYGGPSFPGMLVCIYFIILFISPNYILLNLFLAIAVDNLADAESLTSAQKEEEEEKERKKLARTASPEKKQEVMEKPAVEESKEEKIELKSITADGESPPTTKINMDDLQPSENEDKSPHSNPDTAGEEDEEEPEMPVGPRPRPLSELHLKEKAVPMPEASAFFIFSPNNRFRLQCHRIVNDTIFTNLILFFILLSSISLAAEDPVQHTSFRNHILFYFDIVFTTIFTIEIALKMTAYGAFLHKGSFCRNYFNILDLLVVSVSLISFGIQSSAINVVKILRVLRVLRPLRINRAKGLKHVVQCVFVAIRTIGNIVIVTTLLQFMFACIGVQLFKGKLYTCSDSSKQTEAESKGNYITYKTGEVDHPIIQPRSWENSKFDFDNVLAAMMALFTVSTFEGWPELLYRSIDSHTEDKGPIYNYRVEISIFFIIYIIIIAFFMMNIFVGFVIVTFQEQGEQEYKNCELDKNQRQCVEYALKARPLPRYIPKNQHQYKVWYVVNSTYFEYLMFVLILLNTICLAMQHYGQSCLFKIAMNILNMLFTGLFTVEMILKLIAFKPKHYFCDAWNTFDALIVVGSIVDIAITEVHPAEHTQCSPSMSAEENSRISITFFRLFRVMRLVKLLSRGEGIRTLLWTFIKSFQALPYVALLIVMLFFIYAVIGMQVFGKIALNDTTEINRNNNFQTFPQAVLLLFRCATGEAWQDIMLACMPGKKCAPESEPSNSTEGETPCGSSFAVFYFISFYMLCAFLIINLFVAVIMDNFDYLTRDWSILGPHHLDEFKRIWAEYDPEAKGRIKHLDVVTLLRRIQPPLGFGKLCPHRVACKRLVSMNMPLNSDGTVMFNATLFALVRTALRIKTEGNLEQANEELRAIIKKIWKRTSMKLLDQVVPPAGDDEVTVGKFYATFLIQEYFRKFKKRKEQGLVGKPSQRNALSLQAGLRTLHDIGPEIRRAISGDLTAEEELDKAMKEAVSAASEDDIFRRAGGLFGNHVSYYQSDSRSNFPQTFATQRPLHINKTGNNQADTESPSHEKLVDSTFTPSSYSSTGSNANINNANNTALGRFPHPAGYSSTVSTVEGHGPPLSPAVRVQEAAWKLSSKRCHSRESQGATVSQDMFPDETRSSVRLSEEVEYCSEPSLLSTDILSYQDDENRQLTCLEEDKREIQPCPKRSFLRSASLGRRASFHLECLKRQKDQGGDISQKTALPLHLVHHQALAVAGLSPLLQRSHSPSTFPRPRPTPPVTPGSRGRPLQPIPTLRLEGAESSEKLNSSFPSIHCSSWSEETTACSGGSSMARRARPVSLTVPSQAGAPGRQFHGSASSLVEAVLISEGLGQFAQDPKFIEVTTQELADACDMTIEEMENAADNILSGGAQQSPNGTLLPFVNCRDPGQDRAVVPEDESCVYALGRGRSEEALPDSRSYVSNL", "sequence (P54290 25-944 partner limits assumed)": "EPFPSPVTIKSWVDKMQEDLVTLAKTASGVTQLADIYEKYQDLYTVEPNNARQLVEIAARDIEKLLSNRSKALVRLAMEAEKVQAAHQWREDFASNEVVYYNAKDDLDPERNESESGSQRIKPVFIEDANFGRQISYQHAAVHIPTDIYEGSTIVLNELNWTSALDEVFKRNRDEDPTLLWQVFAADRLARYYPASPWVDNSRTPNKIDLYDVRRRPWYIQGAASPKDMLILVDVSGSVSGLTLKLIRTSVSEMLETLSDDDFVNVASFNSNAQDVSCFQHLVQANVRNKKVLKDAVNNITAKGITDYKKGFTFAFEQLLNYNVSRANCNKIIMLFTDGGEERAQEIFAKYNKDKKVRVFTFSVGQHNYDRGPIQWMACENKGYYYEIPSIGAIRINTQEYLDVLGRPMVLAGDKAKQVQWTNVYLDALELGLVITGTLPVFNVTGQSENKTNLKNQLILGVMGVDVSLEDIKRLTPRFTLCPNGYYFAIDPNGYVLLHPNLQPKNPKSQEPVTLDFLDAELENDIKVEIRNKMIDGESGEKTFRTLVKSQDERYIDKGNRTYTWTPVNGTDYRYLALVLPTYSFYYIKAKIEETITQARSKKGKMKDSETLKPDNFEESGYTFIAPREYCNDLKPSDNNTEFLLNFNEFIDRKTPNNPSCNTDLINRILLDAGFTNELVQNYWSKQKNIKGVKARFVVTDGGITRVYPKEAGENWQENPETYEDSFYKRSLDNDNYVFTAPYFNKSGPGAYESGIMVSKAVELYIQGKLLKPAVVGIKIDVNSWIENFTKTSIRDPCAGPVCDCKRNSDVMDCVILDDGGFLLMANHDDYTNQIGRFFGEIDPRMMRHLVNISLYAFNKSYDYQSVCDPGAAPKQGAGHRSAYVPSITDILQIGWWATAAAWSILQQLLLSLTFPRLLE", "sequence (P54290 945-1091 partner limits assumed)": "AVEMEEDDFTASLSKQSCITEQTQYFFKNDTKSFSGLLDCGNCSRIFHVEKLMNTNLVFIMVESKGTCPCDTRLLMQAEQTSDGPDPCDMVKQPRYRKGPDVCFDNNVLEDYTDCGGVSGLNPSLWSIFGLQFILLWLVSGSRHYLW", "test": "FPL64176 induced vasoconstriction in rat aortae", "conditions": "100 nM, 2 min prior to 1 μM FPL64176"}, "[5]": {"system": "7W WT APP751 Chinese hamster ovary cells", "test": "Aβ1-40 and Aβ1-42 production by ELISA", "type": "cell-based", "conditions": "24 hours treatment", "protocol": "Production of Aβ1-40 and Aβ1-42 in the culture medium was measured by using a commercially available human Aβ1-40 ELISA (Biosource, CA) and commercially available human Aβ1-42 ELISA (Biosource, CA), respectively."}}}
{"smiles": "CC(C)Cc1ccc(C(C)C(=O)O)cc1", "note": "(stereo not drawn) [ibuprofen]", "values": [{"measurement": "effect on Aβ deposits, astrocytosis and dystrophic neuritis", "setting": "Aβ deposits", "result": "reduction in Aβ deposits, astrocytosis, and dystrophic neuritis"}]}
{"smiles": "COC(=O)C1=C(C#N)NC(C)=C(C(=O)OC(C)C)C1c1cccc([N+](=O)[O-])c1", "note": "(racemic) [nilvadipine, isopropyl-3-methyl-2-cyano-1,4-dihydro-6-methyl-4-(m-nitrophenyl)-3,5-pyridine-dicarboxylate]", "values": [{"measurement": "decrease of LDH release", "setting": "[1]", "result": "about 44%"}, {"measurement": "reduction of Aβ burden compared to controls", "setting": "[2]; CA1 region of the hippocampus", "result": "about 52%"}, {"measurement": "reduction of Aβ burden compared to controls", "setting": "[2]; CA2-CA3 region of the hippocampus", "result": "about 50%"}, {"measurement": "reduction of Aβ burden compared to controls", "setting": "[2]; motor cortex", "result": "about 58%"}, {"measurement": "reduction of Aβ burden compared to controls", "setting": "[2]; parietal cortex", "result": "about 65%"}, {"measurement": "reduction of Aβ burden compared to controls", "setting": "[2]; pyriform cortex", "result": "about 58%"}, {"measurement": "reduction of Aβ burden compared to controls", "setting": "[2]; visual cortex", "result": "about 62%"}, {"measurement": "TNF-α production", "setting": "[3]; 50 nM nilvadipine, no LPS", "result": "about 40 pg/ml"}, {"measurement": "TNF-α production", "setting": "[3]; 1 μg/ml LPS plus 50 nM nilvadipine, 24 hours", "result": "about 670 pg/ml"}, {"measurement": "TNF-α production", "setting": "[3]; 1 μg/ml LPS plus 500 nM nilvadipine, 24 hours", "result": "about 610 pg/ml"}, {"measurement": "reduction of Aβ1-40 production", "setting": "[4]; 50 nM, 24 hours", "result": "about 9%"}, {"measurement": "reduction of Aβ1-40 production", "setting": "[4]; 50 nM, 48 hours", "result": "about 18%"}, {"measurement": "reduction of Aβ1-40 production", "setting": "[4]; 250 nM, 24 hours", "result": "about 15%"}, {"measurement": "reduction of Aβ1-40 production", "setting": "[4]; 250 nM, 48 hours", "result": "about 5%"}, {"measurement": "reduction of microglial activation compared to controls", "setting": "CD45+ microglia; hippocampus", "result": "about 33%"}, {"measurement": "reduction of microglial activation compared to controls", "setting": "CD45+ microglia; motor cortex", "result": "about 27%"}, {"measurement": "reduction of microglial activation compared to controls", "setting": "CD45+ microglia; parietal cortex", "result": "about 43%"}]}
{"smiles": "COC(=O)C1=C(C#N)NC(C)=C(C(=O)OC(C)C)[C@H]1c1cccc([N+](=O)[O-])c1", "note": "[(+)-nilvadipine]", "values": [{"measurement": "effect on FPL64176 induced vasoconstriction", "setting": "L-type calcium channels", "result": "completely antagonizes"}, {"measurement": "effect on Aβ1-40 production", "setting": "[5]; dose response", "result": "dose dependently inhibit"}, {"measurement": "effect on Aβ1-42 production", "setting": "[5]; low dose", "result": "slightly stimulate"}]}
